Reference: patent US12648948B2, “Methods and compositions for treating cancer” (UNITED STATES GOVERNMENT AS REPRESENTED BY THE DEPARTMENT …, priority 2017, dated 2026)

Columns and labels:
GBM = conditions: cited from earlier work
[1] = test system: JNK-Axl-ERK signaling pathway; assay: Western blot, erlotinib-induced JNK-Axl-ERK signaling pathway in glioma cells; assay type: cell-based, human; conditions: GBM9, GBM39 neurospheres and U87EGFRwt cells
Experimental: Western blot analysis was performed according to standard protocols.

[2] = test system: GBM9 and GBM39 neurospheres; assay: AlamarBlue cell viability assay, patient derived GBM neurospheres; assay type: cell-based, human; conditions: 72 h; for Cell viability, inhibitor combined with erlotinib: erlotinib 100 nM, SP600125, U0126, R428, thalidomide 1 μM, Enbrel 100 nM; for Cell viability, inhibitor alone: without erlotinib, 1 μM
Experimental: (§1) Cell viability assay was conducted using AlamarBlue cell viability assay kit (ThermoFisher) following manufacturer's protocol. Cells were cultured in Corning 96-well black plates with clear bottom (5000 cells/well). Drugs were added to cells for 72 hour following detection using POLARstar Omega Microplate Reader (excitation at 544 nm and emission at 590 nm) (BMG LABTECH, Germany).

GBM9 cells = assay: Annexin-FACS assay and Caspase 3/7 activation; assay type: cell-based, human; conditions: GBM9 cells, 72 h, Annexin-FACS
Experimental: Annexin assay was performed by using Annexin—V-FLUOS Staining kit (Roche applied Science). Cells (1×10^6) were plated in 6 well plates and treated with drugs or vehicle alone. After 72 hours cells were trypsinized and washed 2 times with 1×PBS. The cells were incubated for 15 minutes at room temperature with Propidium Iodide and Annexin—V-FLUOS labeling solution in incubation buffer. Annexin and/or PI positive cells were detected by Flow Cytometry.
Caspase activity in the supernatant was measured using the Caspase-Glo 3/7 Assay (Promega, G8091) following manufacturer's instructions. Briefly, 72 hours after treatments, cells were washed by cold PBS and total cell lysates were prepared. 50 μg of total protein per sample was added per well of a 96 well plate and was incubated with 100 μl Caspase 3/7 reagent for 30 minutes. The luminescence of each sample was measured using a luminometer. All experiments included at least 3 replicates per group and were repeated 3 times.

[3] = test system: U87EGFRwt and U87EGFRvIII cells; assay: AlamarBlue cell viability assay, established GBM cell lines; assay type: cell-based, human; conditions: established GBM cell lines, 72 h; for Cell viability, inhibitor alone: without erlotinib
Experimental: as §1

[4] = test system: primary embryonic cultures and differentiated PC12 cells; conditions: at dosages that inhibit activation of JNKs, after trophic withdrawal; cited from earlier work
EGFR = assay: Western blot, EGFR activation in U87EGFRwt cells; assay type: cell-based, human; conditions: serum starved, cetuximab overnight, EGF 50 ng/ml 15 min
ERK = assay: Western blot, ERK activation (pERK) in glioma cells; conditions: U87EGFRwt cells, serum starved; cetuximab overnight; EGF 50 ng/ml 15 min
Experimental: Western blot analysis was performed according to standard protocols. In all experiments, before the addition of EGF or erlotinib established cells were cultured overnight in serum free DMEM and primary GBM neurospheres were EGF starved overnight. Cells not treated with EGF or erlotinib were also serum or EGF starved.

GBM9 subcutaneous tumors = assay: Subcutaneous GBM9 xenograft tumor growth; assay type: in vivo, athymic nude mice; conditions: erlotinib 50 mg/kg oral gavage, SP600125 40 mg/kg i.p., thalidomide 150 mg/kg i.p., daily for 10 days
Experimental: 4 to 6 weeks old female athymic nude mice were purchased from Charles River Laboratories. The mice were housed in plastic cages (4-5 mice per cage) in a room with a 12 hour day-night cycle. 1×10^6 GBM9 cells were subcutaneously injected into the right flank of each nude mouse. […] The mice were randomly divided into control and treatment groups, mice were treated with drugs using the indicated doses. For combination treatment, both drugs were given concurrently for indicated periods. Tumor dimensions were measured by caliper every two days and tumor volumes calculated by the formula: volume=length×width×width/2. Mice were sacrificed when tumors reached over […] or 24 days from the first day of treatment.

[5] = mouse, in vivo
[6] = test system: JNK-Axl-ERK signaling axis; assay: Signal transduction in intracranial GBM9 tumors (Western blot, IHC); assay type: in vivo, mice; conditions: thalidomide given with erlotinib
Experimental: To detect the in vivo levels of TNF, 1×10^6 GBM9 cells were injected into the right flanks of nude mice. When the subcutaneous tumor reached a volume of around 200 mm^3, the mice were treated with erlotinib to monitor the upregulation of TNF protein. The animals were dosed consecutively for 1, 2, 7 or 14 days and then sacrificed. The animals without treatment were considered as control (0-day treatment). Tumor tissues were rinsed in PBS and protein was extracted to analyze the TNF levels using ELISA and also used for western blot. To detect the protein expression in mice brain tumor tissues upon drug treatment, the same procedure was performed in orthotopic models. Additionally, with orthotopic models, mice were divided into four groups (control gavage group, erlotinib group, thalidomide group and erlotinib plus thalidomide, n=3). After 48 hours treatment tumors were harvested and subjected to Western blot and immunostaining.
Tumors from nude mice brains were fixed in 10% formalin and embedded in paraffin. Paraffin-embedded sections were cut at five-micrometer thickness. Immunohistochemical staining was performed using the ABC streptavidin-biotin method with the Vectastain ABC kit (Vector Laboratories, Burlingame, CA, USA) according to the manufacturer's protocol. Briefly, after deparaffinization and rehydration, endogenous peroxidase activity was quenched by a 10 min incubation in 3% H2O2. For antigen retrieval, the tissue sections were boiled in 10 mM sodium citrate buffer (pH 6.0) for 20 minutes. Binding of primary anti-pERK (1:100, Cell Signaling Technology, 4376) or anti-pJNK antibody (1:200, Cell signaling Technology, 4668) or anti-pAXL(1:400, R&D, AF2228) was carried out overnight at 4° C. The signal was detected by using the Sigmafast 3,3′-Diaminobenzidine tablets (DAB; Sigma, St. Louis MO). The sections were counterstained lightly with hematoxylin. The IHC staining intensity was scored semiquantitatively as: 0=No positive staining; 1=1-25% tumor cells stained, 2=26%-75% tumor cells stained and 3=>75% tumor cells stained.

TNF = TNF mRNA (qRT-PCR) and TNF ELISA in glioma cells; assay type: cell-based, human; conditions: GBM9 and U87EGFRwt, thalidomide 1 μM
Experimental: Total RNA was isolated by TRIzol Reagent (Ambion). cDNA Reverse Transcription were performed by using High-Capacity cDNA Reverse Transcription Kit (Applied Biosystems). PCR primers were synthesized by IDT (Coralville, IA). Each PCR was carried out in triplicate in a 20 μl volume using SYBR Green Master Mix (Applied Biosystems) for 15 minutes at 95° C. for initial denaturing, followed by 40 cycles of 95° C. for 15 s and 60° C. for 60 s in ViiA 7 Real-Time PCR System (Applied Biosystems). At least two independent experiments were done. Values for each gene were normalized to expression levels of GAPDH mRNA.
2×10^6 cells were incubated in serum-free or EGF free medium containing different concentrations of erlotinib or DMSO. After 48 hours, supernatant and cell lysates were collected. Supernatant medium was concentrated 5-10-fold with Pierce protein concentrator (ThermoFisher). TNF protein concentration in supernatant, cell lysates and tissue extracts was determined by ELISA using a commercial TNF detection kit (ThermoFisher) according to manufacturer's instructions. Additionally, GAS6 protein concentration in supernatant was measured by ELISA kit (LifeSpan BioSciences).

GBM9 intracranial tumors = assay: Orthotopic (intracranial) GBM9 model, survival and bioluminescence imaging; conditions: erlotinib 50 mg/kg oral gavage and/or thalidomide 150 mg/kg i.p., 10 days; repeated with afatinib
Experimental: For the orthotropic model, 1×10^5 GBM9 cells expressing firefly luciferase were injected into the right corpus striatum of the brains of 6-8-week-old nude mice using a stereotactic frame. […] The mice were treated with erlotinib 50 mg/kg by oral gavage and/or intraperitoneal (i.p.) injection of 150 mg/kg thalidomide for 10 consecutive days. Bioluminescence imaging (BLI) was performed to record the growth of tumor every 5 days. Kaplan-Maier survival curves were calculated using GraphPad Prism 7.0 software. Mice were monitored and sacrificed when neurological signs appeared or after 40 days.

[7] = single-arm phase II trial, GBM patients at first recurrence

## COc1cc2ncnc(Nc3ccc(F)c(Cl)c3)c2cc1OCCCN1CCOCC1 [gefitinib]
GBM; [7]
  Median overall survival (OS): about 39 weeks
  Radiographic responses: No radiographic responses

## Etanercept
[1]
  Erlotinib-induced activation of the JNK-Axl-ERK signaling pathway in presence of TNF inhibitor: interruption of the erlotinib-induced activation of the JNK-Axl-ERK signaling pathway
[2]
  Cell viability, inhibitor combined with erlotinib: sensitive to the effects of EGFR inhibition
GBM9 cells
  Number of viable (unstained) cells, inhibitor combined with erlotinib: decreases the number of viable cells
[3]
  Cell viability, inhibitor combined with erlotinib: sensitive to the effects of EGFR inhibition

## Nc1nc(Nc2ccc3c(c2)CC[C@@H](N2CCCC2)CC3)nn1-c1cc2c(nn1)-c1ccccc1CCC2 [R428]
[2]
  Cell viability, inhibitor combined with erlotinib: sensitive to erlotinib
  Cell viability, inhibitor alone: does not affect the viability of these cells
GBM9 cells
  Number of viable (unstained) cells, inhibitor combined with erlotinib: decreases the number of viable cells
[3]
  Cell viability, inhibitor combined with erlotinib: sensitive to erlotinib
  Cell viability, inhibitor alone: does not affect the viability of these cells

## N#CC(=C(/N)Sc1ccccc1N)/C(C#N)=C(\N)Sc1ccccc1N [U0126]
[2]
  Cell viability, inhibitor combined with erlotinib: significant cell death
  Cell viability, inhibitor alone: resistant to JNK or ERK inhibition alone
GBM9 cells
  Number of viable (unstained) cells, inhibitor combined with erlotinib: decreases the number of viable cells
[3]
  Cell viability, inhibitor combined with erlotinib: a combined inhibition of EGFR with ERK or JNK leads to a significant cell death
  Cell viability, inhibitor alone: also resistant to EGFR inhibition or JNK inhibition or ERK inhibition alone

## CCSCc1ccc2c(c1)c1c3c(c4c5cc(CSCC)ccc5n5c4c1n2[C@H]1C[C@](O)(C(=O)OC)[C@]5(C)O1)CNC3=O [CEP-1347]
[4]
  Neuronal survival: promotes neuronal survival

## EGF: Recombinant human EGF from Peprotech
EGFR
  Basal EGFR activation: further increases in EGFR and ERK activation
ERK
  Basal ERK activation: further increases in EGFR and ERK activation

## O=C1CCC(N2C(=O)c3ccccc3C2=O)C(=O)N1 (stereo not shown) [thalidomide]
[1]
  Erlotinib-induced activation of the JNK-Axl-ERK signaling pathway in presence of TNF inhibitor: interruption of the erlotinib-induced activation of the JNK-Axl-ERK signaling pathway
GBM; human, in vivo
  Clinical efficacy in GBM patients: without success
[2]; afatinib 100 nM, thalidomide 1 μM
  Cell viability, thalidomide combined with afatinib: sensitizes
[2]
  Cell viability, inhibitor combined with erlotinib: had the same effect
GBM9 cells
  Number of viable (unstained) cells, inhibitor combined with erlotinib: decreases the number of viable cells
GBM9 subcutaneous tumors
  Growth of subcutaneous tumors: no significant effect on the growth of tumors
[5]
  Body weight of orthotopic models: Body weight losses
[3]
  Cell viability, inhibitor combined with erlotinib: had the same effect
[6]; erlotinib 50 mg/kg
  JNK-Axl-ERK signaling axis in intracranial tumors (Western blot): blocked the EGFR inhibition induced upregulation of the TNF-JNK-Axl-ERK signaling axis
[6]; orthotopic model
  pAxl, pJNK and pERK immunostaining of brain sections: inhibits erlotinib induced pAxl-pJNK-pERK activation
TNF
  Erlotinib-induced increase in TNF secretion in presence of thalidomide: block the erlotinib-induced increase in TNF secretion
GBM9 intracranial tumors
  Survival of mice: neither erlotinib nor thalidomide alone had a significant effect
